Results published in US20110182946A1, “Formation of Nanostructured Particles of Poorly Water Soluble Drugs and Recovery by Mechanical Techniques” (BOARD OF REGENTS, THE UNIVERSITY OF TEXAS SYSTEM, priority 2008, published 2011).
≈ marks a conversion by molar mass, not a printed value.

Key:
[1] = Equilibrium solubility of crystalline ITZ; type: physicochemical; settings: thermodynamic from solid
[2] = pH 6.8 buffer without addition of 0.17% SDS; cited from earlier work

CCC(C)n1ncn(-c2ccc(N3CCN(c4ccc(OCC5COC(Cn6cncn6)(c6ccc(Cl)cc6Cl)O5)cc4)CC3)cc2)c1=O (stereo not drawn) [ITZ, itraconazole]
solubility thermodynamic ([1]; acidic media, pH 1.2, simulated gastric fluid): 4.4 µg/mL (≈ 6.24 µM)
solubility at 18 h ([1]; pH 6.8 phosphate buffer with 0.17% SDS, aqueous with cosolvent or surfactant or cyclodextrin, pH 6.8 media with 0.17% SDS, 37.2° C.): 14 µg/mL (≈ 19.8 µM)
equilibrium solubility [2]: about 1 ng/mL
